Structures can show the parent of a compound that is named as a salt.
Key:
zfOatp1d1 [1] = assay type: in vitro ADME, zebrafish (Danio rerio)
zfOatp1f1 [2] = assay type: in vitro ADME, zebrafish (Danio rerio)
zfOatp1f2-2 [3] = assay type: in vitro ADME, zebrafish (Danio rerio)
zfOatp1f3 [4] = assay type: in vitro ADME, zebrafish (Danio rerio)
[5] = system: Ser/Thr protein phosphatases (ser/thrPP); conditions: cited from earlier work
OATPs = conditions: cited from earlier work
zfOatp1f2-1 [6] = assay type: in vitro ADME, zebrafish (Danio rerio)
carp = conditions: in vivo, po; cited from earlier work
zfOatp1f1 [7] = assay type: in vitro ADME, zebrafish (Danio rerio); remark: listed apart in the source
zfOatp1f2-1 [8] = assay type: in vitro ADME, zebrafish (Danio rerio); remark: listed apart in the source
zfOatp1d1 [9] = assay type: in vitro ADME, zebrafish (Danio rerio); remark: listed apart in the source
zfOatp1f2-2 [10] = assay type: in vitro ADME, zebrafish (Danio rerio); remark: listed apart in the source
zfOatp1f3 [11] = assay type: in vitro ADME, zebrafish (Danio rerio); remark: listed apart in the source
zfOatp1f4-1 [12] = assay type: in vitro ADME, zebrafish (Danio rerio)
zfOatp1f4-2 [13] = assay type: in vitro ADME, zebrafish (Danio rerio)
zfOatp2b1 = assay type: in vitro ADME, zebrafish (Danio rerio)
zfOatp4a1 = assay type: in vitro ADME, zebrafish (Danio rerio)
zfOatp1f4-1 [14] = assay type: in vitro ADME, zebrafish (Danio rerio); remark: listed apart in the source
zfOatp1f4-2 [15] = assay type: in vitro ADME, zebrafish (Danio rerio); remark: listed apart in the source
[16] = uptake for up to 30 min, transfected HEK293 (Figure S1)

With Microcystin-RR [MC-RR] as the compound, how does the “MC congener transport (screen)” value (zfOatp1d1 [1]) read?
The value was “transported all tested MC-congeners”.

And the “time after which nearly linear uptake plateaus” value (zfOatp1d1 [1])?
The value was 12 h.

And the “MC congener transport (screen)” value (zfOatp1f1 [2])?
The value was “absence of MC transport”.

What about the “MC congener transport (screen)” value (zfOatp1f2-2 [3]) of the same compound?
Its value is “did not transport any of the four MC-congeners tested”.

What about the “MC congener transport (screen)” value (zfOatp1f3 [4]) of the same compound?
The value was “did not transport any of the four MC-congeners tested”.

And the “inhibition of ser/thrPP activities” value [5]?
The value was “approximately equimolar concentrations”.

What about the “MC congener transport by OATPs” value (OATPs) of the same compound?
Its value is “lacked transport”.

Which “MC congener transport (screen)” value (zfOatp1d1 [1]) does the source give for Microcystin-LR [MC-LR] here?
Its value is “transported all tested MC-congeners”.

What about the “concentration dependent uptake (saturability)” value (zfOatp1d1 [1]) of the same compound?
The value was “saturable”.

What about the “time up to which uptake is linear” value (zfOatp1d1 [1]) of the same compound?
Its value is “up to 6 h”.

What about the “MC congener transport (screen)” value (zfOatp1f1 [2]) of the same compound?
The value was “absence of MC transport”.

What about the “MC congener transport (screen)” value (zfOatp1f2-1 [6]) of the same compound?
The value was “did take up”.

What about the “time dependent MC uptake, relative speed” value (zfOatp1f2-1 [6]) of the same compound?
Its value is “much slower than MC-LW and MC-LF”.

And the “MC congener transport (screen)” value (zfOatp1f2-2 [3])?
The value was “did not transport any of the four MC-congeners tested”.

And the “MC congener transport (screen)” value (zfOatp1f3 [4])?
Its value is “did not transport any of the four MC-congeners tested”.

And the “inhibition of ser/thrPP activities” value [5]?
Its value is “approximately equimolar concentrations”.

What about the “MC congener transport by OATPs” value (OATPs) of the same compound?
Its value is “comparably minor extent”.

What about the “MC-LR in brain and muscle tissue” value (carp) of the same compound?
The value was “detectable”.

And the “pathological changes in hepatopancreas and kidney” value (carp)?
The value was “time-dependent pathological changes”.

With C[C@]12CC[C@@H]3c4ccc(OS(=O)(=O)O)cc4CC[C@H]3[C@@H]1CCC2=O [E3S, estrone sulfate ammonium salt] as the compound, how does the “[3H] E3S transport, prolonged uptake” value (zfOatp1f1 [7]; [16]) read?
The value was “no [^3H] E3S transport was observed”.

And the “[3H] E3S transport, prolonged uptake” value (zfOatp1f2-1 [8]; [16])?
Its value is “no [^3H] E3S transport was observed”.

With Microcystin-LW [MC-LW] as the compound, how does the “MC congener transport (screen)” value (zfOatp1d1 [1]) read?
The value was “transported all tested MC-congeners”.

And the “time within which transport occurred” value (zfOatp1d1 [1])?
Its value is at most 1 h.

What about the “MC congener transport (screen)” value (zfOatp1f1 [2]) of the same compound?
The value was “absence of MC transport”.

And the “MC congener transport (screen)” value (zfOatp1f2-1 [6])?
The value was “did take up”.

And the “time dependent MC uptake, relative speed” value (zfOatp1f2-1 [6])?
The value was “slower than that observed for zfOatp1d1”.

What about the “MC congener transport (screen)” value (zfOatp1f2-2 [3]) of the same compound?
The value was “did not transport any of the four MC-congeners tested”.

What about the “MC congener transport (screen)” value (zfOatp1f3 [4]) of the same compound?
The value was “did not transport any of the four MC-congeners tested”.

And the “inhibition of ser/thrPP activities” value [5]?
The value was “approximately equimolar concentrations”.

What about the “MC congener transport by OATPs” value (OATPs) of the same compound?
The value was “transport was demonstrated”.

With CN(Cc1cnc2nc(N)nc(N)c2n1)c1ccc(C(=O)N[C@@H](CCC(=O)O)C(=O)O)cc1 [MTX, methotrexate disodium salt] as the compound, how does the “transport of Oatp substrate (uptake vs empty vector cells)” value (zfOatp1d1 [9]) read?
Its value is “transported”.

And the “transport of Oatp substrate (uptake vs empty vector cells)” value (zfOatp1f1 [7])?
The value was “did not transport any of the three substrates”.

And the “transport of Oatp substrate (uptake vs empty vector cells)” value (zfOatp1f2-1 [8])?
The value was “did not transport any of the three substrates”.

What about the “transport of Oatp substrate (uptake vs empty vector cells)” value (zfOatp1f2-2 [10]) of the same compound?
Its value is “none of the other zfOatps transported”.

What about the “transport of Oatp substrate (uptake vs empty vector cells)” value (zfOatp1f3 [11]) of the same compound?
The value was “none of the other zfOatps transported”.

What about the “transport of Oatp substrate (uptake vs empty vector cells)” value (zfOatp1f4-1 [12]) of the same compound?
The value was “none of the other zfOatps transported”.

And the “transport of Oatp substrate (uptake vs empty vector cells)” value (zfOatp1f4-2 [13])?
Its value is “none of the other zfOatps transported”.

And the “transport of Oatp substrate (uptake vs empty vector cells)” value (zfOatp2b1)?
Its value is “did not transport any of the three substrates”.

And the “transport of Oatp substrate (uptake vs empty vector cells)” value (zfOatp4a1)?
The value was “did not transport any of the three substrates”.

With Microcystin-LF [MC-LF] as the compound, how does the “MC congener transport (screen)” value (zfOatp1d1 [1]) read?
Its value is “transported all tested MC-congeners”.

And the “affinity of zfOatp1d1 (Km), MC-LF compared to MC-LR” value (zfOatp1d1 [1])?
Its value is 2 fold.

What about the “concentration dependent uptake (saturability)” value (zfOatp1d1 [1]) of the same compound?
The value was “saturable”.

What about the “relative Vmax (uptake velocity), MC-LF versus MC-LR” value (zfOatp1d1 [1]) of the same compound?
The value was 6 fold.

What about the “time within which transport occurred” value (zfOatp1d1 [1]) of the same compound?
The value was at most 1 h.

What about the “MC congener transport (screen)” value (zfOatp1f1 [2]) of the same compound?
The value was “absence of MC transport”.

What about the “MC congener transport (screen)” value (zfOatp1f2-1 [6]) of the same compound?
The value was “did take up”.

What about the “time dependent MC uptake, relative speed” value (zfOatp1f2-1 [6]) of the same compound?
Its value is “slower than that observed for zfOatp1d1”.

And the “MC congener transport (screen)” value (zfOatp1f2-2 [3])?
Its value is “did not transport any of the four MC-congeners tested”.

And the “MC congener transport (screen)” value (zfOatp1f3 [4])?
Its value is “did not transport any of the four MC-congeners tested”.

And the “MC congener transport (screen)” value (zfOatp1f4-1 [14])?
Its value is “transported”.

And the “time dependent MC uptake, relative speed” value (zfOatp1f4-1 [14])?
The value was “Comparable transport”.

And the “MC congener transport (screen)” value (zfOatp1f4-2 [15])?
The value was “transported”.

And the “time dependent MC uptake, relative speed” value (zfOatp1f4-2 [15])?
The value was “Comparable transport”.

What about the “inhibition of ser/thrPP activities” value [5] of the same compound?
Its value is “approximately equimolar concentrations”.

What about the “MC congener transport by OATPs” value (OATPs) of the same compound?
Its value is “transport was demonstrated”.

Which results are given for C[C@H](CCC(=O)NCCS(=O)(=O)O)[C@H]1CC[C@H]2[C@@H]3[C@H](O)C[C@@H]4C[C@H](O)CC[C@]4(C)[C@H]3C[C@H](O)[C@]12C [TCA, taurocholic acid]?
transport of Oatp substrate (uptake vs empty vector cells) (zfOatp1d1 [9]): transported; transport of Oatp substrate (uptake vs empty vector cells) (zfOatp1f1 [7]): did not transport any of the three substrates; transport of Oatp substrate (uptake vs empty vector cells) (zfOatp1f2-1 [8]): did not transport any of the three substrates; transport of Oatp substrate (uptake vs empty vector cells) (zfOatp1f4-1 [12]): none of the other zfOatps transported; transport of Oatp substrate (uptake vs empty vector cells) (zfOatp1f4-2 [13]): none of the other zfOatps transported; transport of Oatp substrate (uptake vs empty vector cells) (zfOatp2b1): did not transport any of the three substrates

Source: PMC4674391 (Archives of toxicology, 2015)
